The results in this text go back to patent publication US20250171438A1 (Agios Pharmaceuticals, Inc., priority 2022, published 2025).

The target in the experiment is T1, human PAH with the R408W mutation (Homo sapiens, UniProt P00439, R408W).
T1 construct: expressed in transfected cells
T1 sequence (P00439 1-452 R408W): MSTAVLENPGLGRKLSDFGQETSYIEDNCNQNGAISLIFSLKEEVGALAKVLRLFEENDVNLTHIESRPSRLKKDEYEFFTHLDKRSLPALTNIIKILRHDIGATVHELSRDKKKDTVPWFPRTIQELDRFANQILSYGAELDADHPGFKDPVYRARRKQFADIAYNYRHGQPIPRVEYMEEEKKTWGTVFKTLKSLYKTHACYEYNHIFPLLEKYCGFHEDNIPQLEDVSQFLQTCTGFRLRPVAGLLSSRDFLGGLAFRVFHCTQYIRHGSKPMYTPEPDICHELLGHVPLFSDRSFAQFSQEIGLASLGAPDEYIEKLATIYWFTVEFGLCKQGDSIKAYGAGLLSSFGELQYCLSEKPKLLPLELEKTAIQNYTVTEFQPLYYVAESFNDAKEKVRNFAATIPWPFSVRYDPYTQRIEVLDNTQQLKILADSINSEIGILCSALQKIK
In words: Cell Based Phenylalanine Flux Assay. The note with it: A375 cells expressing human R408W PAH, 13C-Tyrosine by LC-MS, average where tested multiple times. Details: scale not given here.

The mark [1] stands for this setting: 24 hrs with compound, read-out: AC50.
[2] abbreviates: 24 hrs compound incubation, read-out: AC50.

Molecules are shown by their SMILES. Like-named read-outs stand apart in the source and are kept apart here. Where only a bound is given, the exact number is not on record here.

Turning to `O=C(c1oc(C2CCN2)nc1C(F)F)N1CCc2[nH]cnc2C1c1nc2c(F)cccc2s1` (stereo not shown), the AC50 under setting [1] was 1 to 5 µM.
`O=C(c1nnc(-c2ncccc2F)o1)N1CCc2[nH]cnc2[C@@H]1c1nc2c(F)cccc2s1` [Example 1901, (R)-(4-(4-fluorobenzo[d]thiazol-2-yl)-6,7-dihydro-1H-imidazo[4,5-c]pyridin-5(4H)-yl)(5-(3-fluoropyridin-2-yl)-1,3,4-oxadiazol-2-yl)methanone]: under setting [2], the AC50 was in the range of 0.5 to 1 µM.
With `O=C(c1cnn2ccc(F)cc12)N1CCc2[nH]cnc2[C@H]1c1nc2ccccc2s1` [Example 1103], the AC50 under setting [2] lay in the range of 0.5 to 1 µM.
Still for that read-out and setting: the same measure for `O=C(c1nnc(-c2cc[nH]n2)o1)N1CCc2[nH]cnc2[C@@H]1c1nc2c(F)cccc2s1` [Example 1885, (R)-(5-(1H-pyrazol-3-yl)-1,3,4-oxadiazol-2-yl)(4-(4-fluorobenzo[d]thiazol-2-yl)-6,7-dihydro-1H-imidazo[4,5-c]pyridin-5(4H)-yl)methanone]: 1 to 5 µM; for `Cc1nc(C2CC2)oc1C(=O)N1CCc2[nH]cnc2[C@@H]1c1nc2ccccc2s1` [Example 1396, (R)-(4-(benzo[d]thiazol-2-yl)-6,7-dihydro-1H-imidazo[4,5-c]pyridin-5(4H)-yl)(2-cyclopropyl-4-methyloxazol-5-yl)methanone]: above 5 µM.
Consider `Cc1ncc(C(=O)N2CCc3[nH]cnc3C2c2nc3ccccc3s2)o1` (stereo not shown), for which, under setting [1], the AC50 fell in the range of 1 to 5 µM.
On to `NC(=O)Cn1cc(C(=O)N2CCc3[nH]cnc3C2c2nc3c(F)cccc3s2)c(Cl)n1` (stereo not shown), for which, where the note is “24 hrs with compound”, the AC50 result is reported as “E, E”.
Consider `O=C(c1oc(-c2ccccn2)nc1C(F)F)N1CCc2[nH]cnc2[C@@H]1c1nc2ccccc2s1` [Example 1796, (R)-(4-(benzo[d]thiazol-2-yl)-6,7-dihydro-1H-imidazo[4,5-c]pyridin-5(4H)-yl)(4-(difluoromethyl)-2-(pyridin-2-yl)oxazol-5-yl)methanone], for which, under setting [2], the AC50 was below 0.5 µM.
As for `O=C(c1oc(C2(O)CCC2)nc1C(F)(F)F)N1CCCc2[nH]cnc2[C@@H]1c1nc2ccccc2s1` [Example 2138, (R)-(4-(benzo[d]thiazol-2-yl)-7,8-dihydroimidazo[4,5-c]azepin-5(1H,4H,6H)-yl)(2-(1-hydroxycyclobutyl)-4-(trifluoromethyl)oxazol-5-yl)methanone], the AC50 under setting [2] was in the range of 1 to 5 µM.
Consider `O=C(c1ccns1)N1CCc2[nH]cnc2[C@@H]1c1nc2ccccc2s1` [Example 1052, (R)-(4-(benzo[d]thiazol-2-yl)-6,7-dihydro-1H-imidazo[4,5-c]pyridin-5(4H)-yl)(isothiazol-5-yl)methanone], for which, under setting [2], the concentration at half-maximal activity (AC50) was above 5 µM.
For the compound `Cn1ncc(C(=O)N2CCc3[nH]cnc3C2c2nc3c(F)cccc3s2)c1Cl` (stereo not shown), the AC50 under setting [1] was in the range of 1 to 5 µM.
For `O=C(c1nccs1)N1CCc2[nH]cnc2[C@@H]1c1nc2c(Cl)cccc2s1` [Example 1202, (R)-(4-(4-chlorobenzo[d]thiazol-2-yl)-6,7-dihydro-1H-imidazo[4,5-c]pyridin-5(4H)-yl)(thiazol-2-yl)methanone], under setting [2], the AC50 is 1 to 5 µM.
`Cc1nnc(CC(=O)N2CCc3[nH]cnc3C2c2nc3ccccc3s2)o1` (stereo not shown): under setting [1], the concentration at half-maximal activity (AC50) was above 5 µM.
For the compound `O=C(Cc1nc(C(F)(F)F)cs1)N1CCc2[nH]cnc2C1c1nc2c(F)cccc2s1` (stereo not shown), the AC50 under setting [1] is 1 to 5 µM.
On to `O=C(c1ocnc1C(F)(F)F)N1CCCc2[nH]cnc2[C@H]1c1nc2ccccc2s1` [Example 2131, (S)-(4-(benzo[d]thiazol-2-yl)-7,8-dihydroimidazo[4,5-c]azepin-5(1H,4H,6H)-yl)(4-(trifluoromethyl)oxazol-5-yl)methanone], for which the AC50 under setting [2] fell in the range of 0.5 to 1 µM.
Same read-out and setting: the same measure for `O=C(c1oc(-c2ccccn2)nc1C(F)(F)F)N1CC2(CC2)c2[nH]cnc2[C@@H]1c1nc2ccccc2s1` [Example 1682, (R)-(4′-(benzo[d]thiazol-2-yl)spiro[cyclopropane-1,7′-imidazo[4,5-c]pyridin]-5′(1′H,4′H,6′H)-yl)(2-(pyridin-2-yl)-4-(trifluoromethyl)oxazol-5-yl)methanone]: 1 to 5 µM.
On to `O=C(c1cnn2cccc(F)c12)N1CCc2[nH]cnc2C1c1nc2cc(F)ccc2s1` (stereo not shown), for which, under setting [1], the AC50 was above 5 µM.
In the case of `CC(C)(F)c1nnc(C(=O)N2CCc3[nH]cnc3[C@H]2c2nc3c(F)cccc3s2)o1` [Example 1836, (S)-(4-(4-fluorobenzo[d]thiazol-2-yl)-6,7-dihydro-1H-imidazo[4,5-c]pyridin-5(4H)-yl)(5-(2-fluoropropan-2-yl)-1,3,4-oxadiazol-2-yl)methanone], the AC50 under setting [2] was below 0.5 µM.
As for `O=C(c1nsc2ccccc12)N1CCc2[nH]cnc2C1c1nc2ccccc2s1` (stereo not shown), under setting [1], the concentration at half-maximal activity (AC50) was 1 to 5 µM.
As for `O=C(c1ncn2ccccc12)N1CCc2[nH]cnc2[C@@H]1c1nc2ccccc2s1` [Example 1028, (R)-(4-(benzo[d]thiazol-2-yl)-6,7-dihydro-1H-imidazo[4,5-c]pyridin-5(4H)-yl)(imidazo[1,5-a]pyridin-1-yl)methanone], the AC50 under setting [2] was above 5 µM.
As to `O=C(c1ccno1)N1CCc2nc[nH]c2C1c1nc2c(F)cccc2s1` (stereo not shown), under setting [1], the AC50 lay in the range of 1 to 5 µM.
On to `O=C(c1cncs1)N1CCc2[nH]cnc2[C@@H]1c1ncc(-c2ccccc2)s1` [Example 2146, (R)-(4-(5-phenylthiazol-2-yl)-6,7-dihydro-1H-imidazo[4,5-c]pyridin-5(4H)-yl)(thiazol-5-yl)methanone], for which the concentration at half-maximal activity (AC50) under setting [2] was above 5 µM.
Turning to `O=C(c1cnc(C(F)(F)F)s1)N1CCc2[nH]cnc2[C@H]1c1nc2ccccc2s1` [Example 1181], the half-maximal activity concentration (AC50) under setting [2] fell in the range of 0.5 to 1 µM.
With `O=C(c1cncs1)N1CCc2[nH]cnc2[C@H]1c1nc2ccccc2s1` [Example 1059], under setting [2], the concentration at half-maximal activity (AC50) was below 0.5 µM.
Consider `O=C(c1nccs1)N1CCc2nc[nH]c2[C@@H]1c1nc2c(F)cccc2s1` [Example 1119, (R)-(4-(4-fluorobenzo[d]thiazol-2-yl)-6,7-dihydro-3H-imidazo[4,5-c]pyridin-5(4H)-yl)(thiazol-2-yl)methanone], for which the half-maximal activity concentration (AC50) under setting [2] lay in the range of 1 to 5 µM.
`CC(C)(O)c1cc(C(=O)N2CCc3[nH]cnc3C2c2nc3c(F)cccc3s2)sn1` (stereo not shown): under setting [1], the AC50 was above 5 µM.
With `Cc1nc(C)c(C(=O)N2CCc3[nH]cnc3[C@H]2c2nc3c(F)cccc3s2)o1` [Example 1321], under setting [2], the AC50 was below 0.5 µM.
For the compound `Cc1nnc(N2CCc3[nH]cnc3C2c2nc3ccccc3s2)o1` (stereo not shown), under setting [1], the AC50 was above 5 µM.
`O=C(Cc1nccs1)N1CCc2[nH]cnc2C1c1nc2cc(F)ccc2s1` (stereo not shown): under setting [1], the concentration at half-maximal activity (AC50) lay within 1 to 5 µM.
Consider `Fc1ccc(-c2nnc(N3CCc4[nH]cnc4[C@H]3c3nc4ccccc4s3)o2)cc1` [Example 1491], for which the AC50 under setting [2] is below 0.5 µM.
In the case of `O=C(c1nc2ccccc2s1)N1CCc2[nH]cnc2C1c1nc2ccc(Cl)cc2[nH]1` (stereo not shown), the AC50 under setting [1] is 1 to 5 µM.
Turning to `Cn1nc(C#N)cc1C(=O)N1CCc2[nH]cnc2C1c1nc2c(F)cccc2s1` (stereo not shown), the AC50 under setting [1] was above 5 µM.
In the case of `Cc1cccc2sc([C@H]3c4nc[nH]c4CCN3C(=O)c3ocnc3C(F)(F)F)nc12` [Example 2010, (R)-(4-(4-methylbenzo[d]thiazol-2-yl)-6,7-dihydro-1H-imidazo[4,5-c]pyridin-5(4H)-yl)(4-(trifluoromethyl)oxazol-5-yl)methanone], the half-maximal activity concentration (AC50) under setting [2] lay in the range of 0.5 to 1 µM.
Regarding `O=C(CCC1CC1)N1CCc2[nH]cnc2[C@H]1c1nc2ccc(F)cc2s1` [Example 1093, (S)-3-cyclopropyl-1-(4-(6-fluorobenzo[d]thiazol-2-yl)-6,7-dihydro-1H-imidazo[4,5-c]pyridin-5(4H)-yl)propan-1-one], the half-maximal activity concentration (AC50) under setting [2] lay within 0.5 to 1 µM.
As to `CC(C)(C)CC(=O)N1CCc2[nH]cnc2[C@H]1c1nc2ccccc2[nH]1` [Example 930, (S)-1-(4-(1H-benzo[d]imidazol-2-yl)-6,7-dihydro-1H-imidazo[4,5-c]pyridin-5(4H)-yl)-3,3-dimethylbutan-1-one], the half-maximal activity concentration (AC50) under setting [2] was below 0.5 µM.
On to `O=C(c1ccon1)N1CCc2[nH]cnc2[C@H]1c1nc2ccccc2[nH]1` [(S)-(4-(1H-benzo[d]imidazol-2-yl)-1,4,6,7-tetrahydro-5H-imidazo[4,5-c]pyridin-5-yl)(isoxazol-3-yl)methanone], for which, under setting [1], the AC50 fell in the range of 1 to 5 µM.
For the compound `CS(=O)(=O)c1ncoc1C(=O)N1CCc2[nH]cnc2C1c1nc2ccccc2s1` (stereo not shown) [listing 1 of 2 here], under setting [1], the half-maximal activity concentration (AC50) was above 5 µM.
As for `O=C(c1nnc(-c2cc[nH]n2)o1)N1CCc2[nH]cnc2[C@H]1c1nc2c(F)cccc2s1` [Example 1886], the AC50 under setting [2] lay in the range of 0.5 to 1 µM.
With `Cn1nncc1C(=O)N1CCc2[nH]cnc2[C@@H]1c1nc2c(F)cccc2s1` [Example 1726, (R)-(4-(4-fluorobenzo[d]thiazol-2-yl)-6,7-dihydro-1H-imidazo[4,5-c]pyridin-5(4H)-yl)(1-methyl-1H-1,2,3-triazol-5-yl)methanone], under setting [2], the AC50 fell in the range of 1 to 5 µM.
Regarding `Cc1nc(C2CC2)oc1C(=O)N1CCc2[nH]cnc2[C@H]1c1nc2ccccc2s1` [Example 1395], the AC50 under setting [2] was below 0.5 µM.
With `CS(=O)(=O)c1ncoc1C(=O)N1CCc2[nH]cnc2C1c1nc2ccccc2s1` (stereo not shown) [listing 2 of 2 here], under setting [1], the concentration at half-maximal activity (AC50) lay in the range of 1 to 5 µM.
Consider `Cc1nnc(CC(=O)N2CCc3[nH]cnc3[C@H]2c2nc3ccccc3s2)s1` (single isomer, unassigned), for which, under setting [1], the AC50 is 1 to 5 µM.
For the compound `O=C(c1cocn1)N1CCc2[nH]cnc2[C@H]1c1nc2ccccc2[nH]1` [(S)-(4-(1H-benzo[d]imidazol-2-yl)-6,7-dihydro-1H-imidazo[4,5-c]pyridin-5(4H)-yl)(oxazol-4-yl)methanone], the concentration at half-maximal activity (AC50) under setting [1] fell in the range of 1 to 5 µM.

The term AC50 denotes the midpoint of the concentration-response curve, whichever way the signal moves.
